The source of these data is PMC5413351, “Structural basis of protein translocation by the Vps4-Vta1 AAA ATPase” (eLife, 2017).

The assay addresses T1, Vps4^101-437-Hcp1 (UniProt P52917+Q9I747).
T1 construct: 6xHis (TEV-cleavable) (N, cleaved yes); Pseudomonas aeruginosa Hcp1 fusion partner (candidate entry Q9I747, HCP1_PSEAE); made in house; host or cells: E. coli BL21(DE3)RIL
T1 sequence (P52917+Q9I747 with tags, fused parts or gaps): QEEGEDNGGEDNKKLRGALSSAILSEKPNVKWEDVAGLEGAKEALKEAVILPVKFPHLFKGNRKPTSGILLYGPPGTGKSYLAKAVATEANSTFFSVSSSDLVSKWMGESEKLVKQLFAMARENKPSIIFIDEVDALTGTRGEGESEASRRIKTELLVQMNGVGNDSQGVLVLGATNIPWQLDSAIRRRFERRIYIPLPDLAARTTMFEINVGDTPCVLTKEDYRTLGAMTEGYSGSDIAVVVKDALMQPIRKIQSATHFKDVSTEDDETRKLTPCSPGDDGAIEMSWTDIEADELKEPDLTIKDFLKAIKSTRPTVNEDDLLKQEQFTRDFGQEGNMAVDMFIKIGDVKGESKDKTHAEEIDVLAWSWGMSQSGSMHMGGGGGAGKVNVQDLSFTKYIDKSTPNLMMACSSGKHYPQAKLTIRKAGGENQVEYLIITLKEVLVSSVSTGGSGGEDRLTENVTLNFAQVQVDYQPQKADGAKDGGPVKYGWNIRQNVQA
T1 sequence (Q06263 280-330 partner limits assumed): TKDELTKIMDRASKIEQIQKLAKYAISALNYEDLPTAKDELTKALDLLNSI
Kind of assay: Fluorescence polarization binding of fluorescently labeled ESCRT-III peptide to Vps4^101-437-Hcp1. Also on record: species or system S. cerevisiae. As to conditions: 2:1 Vta1^VSL:Vps4 subunits, 1 mM ADP·BeFx, 1 nM fluorescent peptide, 20 mM HEPES pH 7.4, 100 mM NaCl, 10 mM MgCl2, 1 mM DTT, room temperature; per Vps4 hexamer; global fit of four independent experiments. Here is the method:
Fluorescence polarization assay for ESCRT-III peptide binding
When equilibrium was reached, parallel and perpendicular fluorescence intensities were measured on a Biotek Synergy Neo HTS microplate reader using an excitation wavelength of 485 nm and an emission wavelength of 528 nm.
In general terms: Polarisation of emitted light reports the rotation of a fluorescent probe.

Where a SMILES comes first, the peptide text is derived from it.

A word on the Kd: it is the free concentration of one partner at which half of the binding sites on the other are occupied at equilibrium, for simple one-to-one binding. As for `CC[C@H](C)[C@H](NC(=O)[C@H](CCC(=O)O)NC(=O)[C@H](CC(=O)O)NC(=O)[C@H](CC(C)C)NC(=O)[C@@H](NC(=O)[C@H](CCCCN)NC(=O)[C@H](CC(N)=O)NC(=O)[C@@H](NC(=O)[C@@H](NC(=O)[C@H](CCC(=O)O)NC(=O)[C@H](CC(=O)O)NC(=O)c1ccc2c(c1)C(=O)OC21c2ccc(O)cc2Oc2cc(O)ccc21)[C@@H](C)CC)C(C)C)C(C)C)C(=O)NCC(=O)N[C@H](C(=O)N[C@@H](CC(=O)O)C(=O)N[C@@H](CC(C)C)C(=O)N[C@@H](CC(N)=O)C(=O)N[C@@H](CO)C(=O)N[C@@H](CCC(N)=O)C(=O)N[C@@H](CC(C)C)C(=O)N[C@@H](CCC(N)=O)C(N)=O)C(C)C` [Peptide ‘20’] (HELM PEPTIDE1{[O=C1OC2(c3ccc(O)cc3Oc3cc(O)ccc32)c2ccc(C(=O)[*:2])cc21].D.E.I.V.N.K.V.L.D.E.I.G.V.D.L.N.S.Q.L.Q.[am]}$$$$V2.0), the Kd was 0.178 µM.
